Measurements from patent US10525026B2, “Intravenous administration of citrulline during surgery” (Vanderbilt University, priority 2015, dated 2020).

Tests used:
[1] = Perioperative intravenous L-citrulline pharmacokinetics, single bolus dose escalation in children undergoing congenital cardiac surgery; type: in vivo
Procedure: To determine clearance of a single bolus dose of IV citrulline and optimal dose frequency, a dose escalation design using three concentrations of IV citrulline: 50, 100, & 150 mg/kg was utilized. The dose of citrulline was given in the operating room immediately after cannulation and initiation of cardiopulmonary bypass. The overall goal was to achieve a sustained citrulline level of 100 μmol/L or more up to four hours after the initial dose. The four hour time point was selected to allow for the surgical procedure to be completed and the patient to return to the ICU postoperatively before further dosing.
Patients were then enrolled using this revised protocol of a combination of a bolus dose of 150 mg/kg in the OR on CPB and a continuous infusion of 9 mg/kg/hr started postop in the PICU at 4 hours after the initial bolus dose.

[2] = Intravenous citrulline in piglets: safety and effect on serum arginine levels; type: in vivo, Duroc swine; settings: 600 mg/kg IV
Procedure: The objective was to assess the safety of intravenous citrulline and its effect on serum arginine levels in piglets. A total of 9 Duroc swine, aged 5-21 days, with a target minimum weight of 4 kg were utilized. All piglets underwent anesthetic induction and tracheostomy. Central lines were placed in the femoral artery and femoral vein and hemodynamics monitored continuously. Citrulline (600 mg/kg IV) was administered to 5 piglets. Saline was given to control animals. Serum amino acids were drawn before and each hour after citrulline administration.

[3] = Randomized, placebo controlled, double blind intravenous citrulline study (77 patients); type: in vivo, children; settings: bolus plus infusion protocol, hemofiltration during CPB
From the text: An intravenous citrulline study conducted was a randomized, placebo controlled, double blind study with the primary clinical outcome being length of mechanical ventilation postoperatively and secondarily the incidence of postoperative pulmonary hypertension between the 2 treatment groups (citrulline vs placebo).
A total of 77 patients were enrolled at Vanderbilt Children's Hospital. Patients were screened based on the surgical schedule. Based on this schedule, patients undergoing one of the 5 planned cardiac surgeries included in this study were screened (patients undergoing the Norwood procedure are now excluded at the recommendation of the DSMB).
The study was stopped in preparation for a larger multicenter randomized placebo controlled trial. […] These hemofiltration techniques had changed during the study, and the investigators were not aware of these changes.

[4] = Revised dosing protocol for cardiac surgery, 22 patients randomized to placebo and citrulline; type: in vivo, children
From the text: The study in this example was undertaken to test a revised dosing protocol designed to achieve and maintain therapeutic citrulline levels in the face of ultrafiltration and crystalloid replacement. […] The study recruited 22 patients randomized in equal numbers of 11 patients each to placebo and citrulline arms. Early in the course of the study, it was recognized that one of the two participating centers routinely extubated all patients in the operating room immediately following cessation of cardiopulmonary bypass. This precluded use of the duration of mechanical ventilation as an endpoint. Instead, a post-hoc analysis was applied using the duration of all forms of ventilatory support as a possible endpoint. […] In contrast, contingency table analysis, shown in Table 5, did achieve borderline significance. Overall, the results are considered to represent a strong trend.

[5] = Phase IB single-blind, randomized, placebo controlled PK and safety study of IV L-citrulline in children and infants undergoing CPB; type: in vivo
Procedure: A multicenter, Phase IB single-blind, randomized, placebo controlled study was conducted to determine the pharmacokinetics (PK) and safety of IV L-citrulline administration to children and infants undergoing cardiopulmonary bypass (CPB) for surgical repair of congenital heart defects.
The primary objective of the study was to determine if a revised protocol of intravenous (IV) L-citrulline delivery given peri-operatively achieved a plasma citrulline level of >100 μmol/L in the group given citrulline and to compare that to citrulline levels in the placebo group, during follow-up in children undergoing surgical repair of an atrial septal defect (ASD) and/or a ventricular septal defect (VSD) or a partial or complete atrioventricular septal defect (AVSD).
Twenty two (22) patients were enrolled and treated. The patients received study drug or placebo infusion according to a fixed dosing protocol starting at the initiation of CPB until 48 hours postoperatively or until removal of the arterial line. Study participation ended at discharge or at Day 28 whichever came first. The dosing regimen was designed to maintain plasma citrulline levels in the face of extended hemofiltration.
Plasma citrulline concentration levels were the primary PK variable; these were assessed in blood samples collected at 7 perioperative time points. Secondary PK variables were concentrations of arginine and nitric oxide (NO) metabolites in the same sample set. PK values were compared between groups.
Subjects received an IV citrulline bolus of 150 mg/kg or placebo at the initiation of CPB, followed by the addition of L-citrulline at a concentration of 200 μmol/L or placebo to the filtration or hemoconcentration replacement fluid used during CPB. A citrulline bolus of 20 mg/kg was administered 30 minutes after decannulation from CPB, immediately followed by a 9-mg/kg/hr continuous infusion of citrulline or placebo for 48 hours.
Primary safety assessments included hemodynamic monitoring to identify clinically significant hypotension using age-specific limits. Adverse event information was collected, and postoperative bleeding was recorded.
Further safety, laboratory, and clinical assessments were performed from baseline to discharge, secondary clinical variables included: postoperative mechanical ventilation, duration of total respiratory support, hemodynamic improvement, postoperative PVT by echocardiogram, serum creatinine and liver enzymes, inotrope score, duration of chest tube usage, length of intensive care unit stay, length of hospitalization and survival.
The duration of postoperative invasive mechanical ventilation was derived as the time in hours from separation from cardiopulmonary bypass until endotracheal extubation. If a patient required reintubation within 24 hours after extubation, the reintubation time was added in the main analysis. In a second analysis, the reintubation time was not included.

[6] = Safety and pharmacokinetics of intravenous citrulline, open label dose escalation in children undergoing repair of congenital heart defects; type: in vivo; settings: for concentration at 4 h: read-out: 4 hour trough citrulline level
Procedure: The initial goal was to test the safety and pharmacokinetics of three doses of intravenous citrulline in children undergoing surgical repair of specific congenital heart defects. […] An adverse drop in mean arterial pressure was defined as a greater than a twenty percent decrease from baseline. The baseline postoperative mean arterial blood pressure was calculated as the average of mean arterial blood pressure measurements collected every 5 minutes for the 30 minutes immediately preceding the administration of the postoperative dose or infusion.
The original doses selected were 200, 400, and 600 mg/kg based on data from previous animal studies. The original study design was a 4 arm study using the 3 doses and a placebo control.
After pharmacokinetic modeling, the study design was changed to a bolus dose of 150 mg/kg given in the OR on cardiopulmonary bypass followed 4 hours later by a continuous infusion of 9 mg/kg/hour for 48 hours. Another 9 patients were enrolled. The mean plasma levels of both citrulline and arginine in study patients (+IV citrulline) compared to patients in the observational cohort (−IV citrulline) are depicted in FIGS. 11A-B.

[7] = Perioperative oral citrulline supplementation in children undergoing congenital cardiac surgery; type: in vivo
Procedure: 40 patients with one of the 5 surgical diagnoses identified above were randomized to receive 5 doses of oral citrulline (1.9 grams/kg) vs. placebo. The first dose was administered immediately prior to surgery and the second dose immediately on arrival in the Pediatric ICU after surgery followed every 12 hours×3 doses.

[8] = revised dosing protocol, contingency table, 11 patients per arm
[9] = bolus 150 mg/kg at beginning of surgery, 4 hours later continuous infusion 9 mg/kg/hr
[10] = original doses 200, 400, and 600 mg/kg intravenous, five patients

In the case of `NC(=O)NCCCC(N)C(=O)O` (stereo not drawn) [citrulline, 2-amino-5-(carbamoylamino)pentanoic acid], the “Adverse effects including hypotension” value ([1]; IV bolus 50, 100, 150 mg/kg) is reported as “no adverse effects including hypotension”, the “½ life of the bolus doses” value ([1]; IV bolus 50, 100, 150 mg/kg) is reported as 60 to 90 min and the concentration at 4 h ([1]; human, plasma, 150 mg/kg IV bolus after initiation of CPB, read-out: Four hour citrulline levels) is reported as roughly 100 µM. The Hemodynamic instability [2] was “No hemodynamic instability was observed”, the “Time of peak serum arginine levels following intravenous citrulline administration” value [2] was 1 to 2 h and the “Arginine Levels Following intravenous citrulline” value ([2]; 1 hour post) was 535.0 µmol/L. For the same compound, the “Mean Arterial Blood Pressures Following intravenous Citrulline” value ([2]; 1 hour post) was 67.4 mmHg, the “Arginine Levels Following intravenous citrulline” value ([2]; 2 hours post) was 559.8 µmol/L and the “Mean Arterial Blood Pressures Following intravenous Citrulline” value ([2]; 2 hours post) was 64.8 mmHg. For the same compound, the “Arginine Levels Following intravenous citrulline” value ([2]; 3 hours post) was 498.4 µmol/L, the “Mean Arterial Blood Pressures Following intravenous Citrulline” value ([2]; 3 hours post) was 62.2 mmHg and the “Arginine Levels Following intravenous citrulline” value ([2]; Baseline) was 131.5 µmol/L. For the same compound, the “Mean Arterial Blood Pressures Following intravenous Citrulline” value ([2]; Pre-dose) was 67.0 mmHg, the “Reaching the sustained target plasma citrulline level of 100 μmol/L” value [3] was “a majority who received citrulline did not reach the therapeutic sustained target plasma citrulline level” and the “Systolic and diastolic blood pressure versus placebo” value ([4]; FIG. 18A) was “No significant change in systolic and diastolic blood pressure”. For the same compound, the “Mean arterial pressure versus placebo” value ([4]; FIG. 18B) was “No significant change in the mean arterial pressure”, the “Inotrope scores versus placebo” value ([4]; particularly from 15 to 18 hours onward following ICU admission) was “markedly better inotrope scores” and the “Adverse effects upon hemodynamic parameters” value ([4]; revised dosing protocol) was “No adverse effects upon hemodynamic parameters were observed”. For the same compound, the “Number of patients with Duration of Respiratory Support >50 hours” value [4, 8] was 2, the “Number of patients with Duration of Respiratory Support ≤50 hours” value [4, 8] was 7 and the Plasma citrulline levels ([5]; bolus 150 mg/kg, 200 μmol/L in filtration fluid, bolus 20 mg/kg, infusion 9 mg/kg/hr for 48 hours) was greater than 100 µmol/L. For the same compound, the “Sustained plasma citrulline levels” value ([5]; bolus 150 mg/kg, 200 μmol/L in priming and hemofiltration fluid, bolus 20 mg/kg, infusion 9 mg/kg/hr for 48 hours) was “around 100 μmol/L”, the “Duration of invasive mechanical ventilation, Kaplan-Meier analysis versus placebo” value ([5]; excluding re-intubation, Wilcoxon p=0.0222, ANOVA t-test p=0.0317) was “reduced duration of mechanical ventilation” and the “Mean duration of invasive mechanical ventilation” value ([5]; including the reintubation time, placebo 37 hours) was 5 h. The “Composite durations of mechanical ventilation and inotrope therapy versus placebo” value ([5]; longer of the two durations, surrogate for ICU stay) was “shorter composite durations of mechanical ventilation and inotrope therapy”, the “Patients extubated in the operating room” value ([5]; one site, 6 patients per group, placebo 33%) was 100% and the Adverse side effects ([6]; 50 mg/kg intravenous) was “No adverse side effects were noted”. For the same compound, the Peak citrulline level ([6]; 50 mg/kg intravenous, patients 6 and 8) was “approximately 220 μmol/L”, the Adverse side effects ([6]; 100 mg/kg intravenous) was “no adverse side effects were noted” and the Peak citrulline level ([6]; 100 mg/kg intravenous, patients 9 & 10) was 375 µmol/L. For the same compound, the Peak citrulline level ([6]; 150 mg/kg intravenous, patients 13-16) was 660 µmol/L, the Adverse side effects [6, 9] was “No adverse side effects were noted” and the “Sustained plasma citrulline levels” value [6, 9] was “around 100 μmol/L”. For the same compound, the Significant adverse events ([6]; bolus 150 mg/kg on CPB, 4 hours later infusion 9 mg/kg/hour for 48 hours) was “one significant adverse event but it was not related to the use of IV citrulline”, the concentration at 4 h ([6]; human, plasma, 50 mg/kg intravenous, patients 6 and 8) was 40 µM and the concentration at 4 h ([6]; human, plasma, 100 mg/kg intravenous, patients 9 & 10) was 50 µM. For the same compound, the concentration at 4 h ([6]; human, plasma, 150 mg/kg intravenous, patients 13-16) was 80 µM, the half-life ([6]; human, plasma, intravenous bolus 50, 100, 150 mg/kg) was roughly 1.42 h and the Adverse effects [6, 10] was “no adverse effects were noted”. For the same compound, the Plasma levels achieved [6, 10] was “very high”, the “Tolerability / adverse events of oral citrulline” value ([7]; 1.9 g/kg before CPB, postoperatively and every 12 hours for 48 hours) was “well tolerated with no evidence of significant adverse events” and the Plasma citrulline levels ([7]; 5 doses of 1.9 grams/kg, vs. placebo 26, p=0.013) was 36 µmol/L.
